# Test results taken from patent US8609708B2 (Human BioMolecular Research Institute, priority 2003, dated 2013).
# Read-outs that look alike come from different tables or passages of the source.
# Experiments:
# [1] = target: CYP2C19 (Homo sapiens (Human), UniProt P33261); test: CYP2C19 Vivid blue substrate O-dealkylation inhibition; format: biochemical
# [2] = target: CYP2E1 (Homo sapiens (Human), UniProt P05181); test: CYP2E1 Vivid blue substrate O-dealkylation inhibition; format: biochemical
# [3] = target: P450 2A6dH (Homo sapiens (Human), UniProt P11509, INS494HHHH)
# Protocol: Subsequently, test compound (in 100% ethanol, 10 μM) was added to both the cuvettes. The maximal ethanol concentration used was 2%. The difference spectra were obtained after the system reached equilibrium (3 min). All spectra were recorded at 25° C.
# [4] = Mouse liver microsome stability assay; details: mouse, mouse liver microsomes, pH 7.4
# Protocol: The residue was reconstituted in methanol (200 μL), centrifuged at 13,000 rpm for 5 min and the supernatant was analyzed by high-performance liquid chromatography with an Axxi-chrom (straight-phase) silica column (4.6 mm×250 mm, 5 μm) or with a Supelco (reverse-phase) HS F5 pentafluorophenyl column (4.6 mm×250 mm, 5 μm).
# [5] = Human liver microsome stability assay; details: human, human liver microsomes, pH 7.4
# [6] = target: CYP2C9 (Homo sapiens (Human), UniProt P11712); test: CYP2C9 Vivid blue substrate O-dealkylation inhibition; format: biochemical
# [7] = target: CYP3A4 (Homo sapiens (Human), UniProt P08684); test: in vitro
# Sequence of CYP3A4 (P08684 whole entry): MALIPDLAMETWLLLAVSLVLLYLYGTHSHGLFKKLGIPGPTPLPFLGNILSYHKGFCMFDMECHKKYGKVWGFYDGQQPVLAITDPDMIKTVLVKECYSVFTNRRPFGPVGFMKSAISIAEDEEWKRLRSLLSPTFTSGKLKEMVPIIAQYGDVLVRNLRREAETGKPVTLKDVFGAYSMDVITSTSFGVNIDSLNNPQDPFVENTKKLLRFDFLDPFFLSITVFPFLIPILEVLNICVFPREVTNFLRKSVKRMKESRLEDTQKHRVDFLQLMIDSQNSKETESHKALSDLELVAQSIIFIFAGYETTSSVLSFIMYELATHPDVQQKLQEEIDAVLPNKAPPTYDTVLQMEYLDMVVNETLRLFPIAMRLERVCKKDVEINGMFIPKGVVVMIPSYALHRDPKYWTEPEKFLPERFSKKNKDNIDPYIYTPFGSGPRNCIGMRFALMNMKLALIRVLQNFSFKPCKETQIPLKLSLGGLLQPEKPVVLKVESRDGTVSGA
# Protocol: (§1) To gain insight into the selectivity of the synthetic compounds, nicotine, nicotine related alkaloids and nicotine metabolites for inhibition of other CYPs, we examined the major CYP present in human liver (i.e., CYP 3A4). […] A typical incubation mixture ([…] ), 0.5 mM NADP^+, 2.0 mM G6P, 1 U of G6P dehydrogenase, […] inhibitor was added last as to minimize interaction with the protein. After mixing on ice, the reaction was initiated by the addition of substrate and incubated at 37° C. with shaking in air. Organic extracts were injected onto a Hitachi L-7100 system equipped with a Hitachi L-7400 UV detector. Separations were done with an Altex Ultrasphere ODS (4.6 mm×250 mm, 5 μm) column. The analytes were eluted with an isocratic solvent system consisting of water/acetonitrile/methanol (30:10:60, v/v/v) at a flow rate of 1.0 mL/min. […] Quantification of substrate and metabolite was determined from peak areas of the chromatogram and comparison with standard curves. IC50 values were determined as described below.
# (§2) To measure CYP3A4 activity, testosterone 6-hydroxylation was determined.
# [8] = target: T1, human CYP2A6 (Homo sapiens (Human), UniProt P11509)
# T1 sequence (P11509 whole entry): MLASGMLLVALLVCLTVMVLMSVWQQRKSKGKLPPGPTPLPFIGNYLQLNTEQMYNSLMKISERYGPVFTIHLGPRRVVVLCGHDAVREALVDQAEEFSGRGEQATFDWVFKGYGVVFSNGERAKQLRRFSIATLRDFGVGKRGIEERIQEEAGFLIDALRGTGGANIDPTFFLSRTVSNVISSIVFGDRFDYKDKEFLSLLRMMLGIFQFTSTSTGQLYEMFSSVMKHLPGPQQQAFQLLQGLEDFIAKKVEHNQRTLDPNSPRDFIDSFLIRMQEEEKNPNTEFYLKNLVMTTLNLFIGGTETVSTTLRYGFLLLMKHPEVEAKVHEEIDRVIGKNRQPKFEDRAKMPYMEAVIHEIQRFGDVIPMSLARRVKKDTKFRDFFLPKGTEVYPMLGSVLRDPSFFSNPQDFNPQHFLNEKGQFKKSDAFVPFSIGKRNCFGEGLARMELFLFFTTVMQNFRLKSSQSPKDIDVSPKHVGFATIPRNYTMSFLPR
# [9] = target: CYP2B6 (Homo sapiens (Human), UniProt P20813); test: CYP2B6 Vivid blue substrate O-dealkylation inhibition; format: biochemical
# Sequence of CYP2B6 (P20813 whole entry): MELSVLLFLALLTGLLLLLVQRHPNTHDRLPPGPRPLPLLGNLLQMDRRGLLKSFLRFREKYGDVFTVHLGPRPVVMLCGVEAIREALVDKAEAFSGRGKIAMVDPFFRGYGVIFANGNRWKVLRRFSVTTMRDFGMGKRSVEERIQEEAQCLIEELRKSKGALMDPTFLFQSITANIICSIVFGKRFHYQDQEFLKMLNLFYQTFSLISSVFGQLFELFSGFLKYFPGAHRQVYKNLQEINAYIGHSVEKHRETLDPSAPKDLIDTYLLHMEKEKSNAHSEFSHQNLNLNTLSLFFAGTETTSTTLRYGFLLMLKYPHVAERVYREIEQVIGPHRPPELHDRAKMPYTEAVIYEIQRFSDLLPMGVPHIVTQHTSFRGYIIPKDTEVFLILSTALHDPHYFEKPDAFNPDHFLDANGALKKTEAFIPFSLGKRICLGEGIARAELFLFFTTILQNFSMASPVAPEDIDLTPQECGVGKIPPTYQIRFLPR
# [10] = target: CYP2D6 (Homo sapiens (Human), UniProt P10635); test: CYP2D6 Vivid blue substrate O-dealkylation inhibition; format: biochemical
# Sequence of CYP2D6 (P10635 whole entry): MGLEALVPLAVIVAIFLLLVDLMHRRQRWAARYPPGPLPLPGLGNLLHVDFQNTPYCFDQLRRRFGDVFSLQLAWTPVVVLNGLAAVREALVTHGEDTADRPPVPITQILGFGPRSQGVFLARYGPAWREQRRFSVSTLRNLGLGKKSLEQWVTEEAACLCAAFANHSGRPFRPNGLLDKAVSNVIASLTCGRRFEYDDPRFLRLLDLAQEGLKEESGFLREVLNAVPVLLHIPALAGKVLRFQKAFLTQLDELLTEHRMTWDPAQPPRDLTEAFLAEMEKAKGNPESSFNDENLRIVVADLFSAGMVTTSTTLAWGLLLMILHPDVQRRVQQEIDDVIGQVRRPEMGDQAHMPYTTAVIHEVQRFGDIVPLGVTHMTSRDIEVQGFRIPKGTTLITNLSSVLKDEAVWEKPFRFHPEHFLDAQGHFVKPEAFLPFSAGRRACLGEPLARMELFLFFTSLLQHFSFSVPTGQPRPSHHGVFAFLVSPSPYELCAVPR
# [11] = target: CYP2C19 relative to CYP2A6 (Homo sapiens (Human), UniProt P33261); test: CYP2C19 Vivid blue substrate O-dealkylation inhibition; format: biochemical
# Sequence of CYP2C19 relative to CYP2A6 (P33261 whole entry): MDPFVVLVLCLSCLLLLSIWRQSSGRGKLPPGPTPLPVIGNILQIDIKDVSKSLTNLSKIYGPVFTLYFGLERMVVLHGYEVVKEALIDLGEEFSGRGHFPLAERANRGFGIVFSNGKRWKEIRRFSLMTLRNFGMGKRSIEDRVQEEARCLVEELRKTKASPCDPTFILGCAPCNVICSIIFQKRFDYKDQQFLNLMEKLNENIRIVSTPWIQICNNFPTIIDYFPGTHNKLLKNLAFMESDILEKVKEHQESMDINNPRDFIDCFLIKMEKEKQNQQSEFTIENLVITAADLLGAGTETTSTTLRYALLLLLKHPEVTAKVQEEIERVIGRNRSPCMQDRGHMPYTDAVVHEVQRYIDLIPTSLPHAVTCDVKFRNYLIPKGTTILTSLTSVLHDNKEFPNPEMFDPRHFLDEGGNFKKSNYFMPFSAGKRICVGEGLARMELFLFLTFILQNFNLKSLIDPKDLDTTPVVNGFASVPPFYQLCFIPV
# [12] = target: CYP2E1 relative to CYP2A6 (Homo sapiens (Human), UniProt P05181); test: CYP2E1 Vivid blue substrate O-dealkylation inhibition; format: biochemical
# Sequence of CYP2E1 relative to CYP2A6 (P05181 whole entry): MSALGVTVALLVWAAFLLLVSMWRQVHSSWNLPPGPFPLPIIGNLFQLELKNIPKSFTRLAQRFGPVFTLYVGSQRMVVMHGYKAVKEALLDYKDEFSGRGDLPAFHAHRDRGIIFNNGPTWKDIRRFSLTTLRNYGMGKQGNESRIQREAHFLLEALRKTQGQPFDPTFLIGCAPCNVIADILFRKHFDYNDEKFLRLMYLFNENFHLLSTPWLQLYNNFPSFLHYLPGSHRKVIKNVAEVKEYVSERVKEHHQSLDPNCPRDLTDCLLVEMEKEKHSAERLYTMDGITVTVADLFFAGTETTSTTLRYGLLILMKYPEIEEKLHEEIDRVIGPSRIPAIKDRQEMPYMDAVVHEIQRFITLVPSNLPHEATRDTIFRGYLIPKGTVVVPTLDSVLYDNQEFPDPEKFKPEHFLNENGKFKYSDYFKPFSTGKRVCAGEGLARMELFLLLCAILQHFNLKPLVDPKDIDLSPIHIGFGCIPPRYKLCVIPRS
# [13] = target: CYP2C9 relative to CYP2A6 (Homo sapiens (Human), UniProt P11712); test: CYP2C9 Vivid blue substrate O-dealkylation inhibition; format: biochemical
# [14] = target: CYP3A4 relative to CYP2A6 (Homo sapiens (Human), UniProt P08684); test: in vitro; details: human; for selectivity ratio at 30 min: pH 7.5
# Sequence of CYP3A4 relative to CYP2A6 (P08684 whole entry): as the sequence (P08684 whole entry) above
# Protocol: as §1, §2
# [15] = target: CYP2B6 relative to CYP2A6 (Homo sapiens (Human), UniProt P20813); test: CYP2B6 Vivid blue substrate O-dealkylation inhibition; format: biochemical
# Sequence of CYP2B6 relative to CYP2A6 (P20813 whole entry): as the sequence (P20813 whole entry) above
# [16] = target: CYP2D6 relative to CYP2A6 (Homo sapiens (Human), UniProt P10635); test: CYP2D6 Vivid blue substrate O-dealkylation inhibition; format: biochemical; details: recombinant CYP2D6 BACULOSOMES, pH 8, probe Vivid blue substrate (10 μM), O-dealkylation
# Sequence of CYP2D6 relative to CYP2A6 (P10635 whole entry): as the sequence (P10635 whole entry) above
# [17] = target: T1, human CYP2A6; test: CYP2A6 mediated coumarin 7-hydroxylation inhibition
# [18] = target: mouse CYP2A5 (Mus musculus (Mouse), UniProt P20852); test: Inhibition of mouse CYP2A5; format: biochemical; details: read-out: IC50 mCYP2A5
# Sequence of mouse CYP2A5 (P20852 whole entry): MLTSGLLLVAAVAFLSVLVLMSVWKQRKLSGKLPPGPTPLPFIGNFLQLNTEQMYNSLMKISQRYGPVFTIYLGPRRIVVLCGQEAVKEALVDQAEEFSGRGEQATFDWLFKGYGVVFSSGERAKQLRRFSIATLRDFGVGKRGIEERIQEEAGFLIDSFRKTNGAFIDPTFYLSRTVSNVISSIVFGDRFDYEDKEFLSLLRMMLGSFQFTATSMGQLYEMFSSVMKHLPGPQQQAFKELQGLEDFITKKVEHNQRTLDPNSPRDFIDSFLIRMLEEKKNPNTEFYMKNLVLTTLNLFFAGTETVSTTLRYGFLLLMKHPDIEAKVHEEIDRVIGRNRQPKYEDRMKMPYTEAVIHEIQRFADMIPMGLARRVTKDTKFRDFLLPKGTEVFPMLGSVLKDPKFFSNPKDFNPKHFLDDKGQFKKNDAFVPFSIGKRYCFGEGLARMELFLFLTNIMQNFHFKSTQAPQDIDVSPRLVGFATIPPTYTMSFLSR
# [19] = target: CYP2A13 (Homo sapiens (Human), UniProt Q16696); test: Inhibition of human CYP2A13; details: for inhibition at 1 µM: human
# Sequence of CYP2A13 (Q16696 whole entry): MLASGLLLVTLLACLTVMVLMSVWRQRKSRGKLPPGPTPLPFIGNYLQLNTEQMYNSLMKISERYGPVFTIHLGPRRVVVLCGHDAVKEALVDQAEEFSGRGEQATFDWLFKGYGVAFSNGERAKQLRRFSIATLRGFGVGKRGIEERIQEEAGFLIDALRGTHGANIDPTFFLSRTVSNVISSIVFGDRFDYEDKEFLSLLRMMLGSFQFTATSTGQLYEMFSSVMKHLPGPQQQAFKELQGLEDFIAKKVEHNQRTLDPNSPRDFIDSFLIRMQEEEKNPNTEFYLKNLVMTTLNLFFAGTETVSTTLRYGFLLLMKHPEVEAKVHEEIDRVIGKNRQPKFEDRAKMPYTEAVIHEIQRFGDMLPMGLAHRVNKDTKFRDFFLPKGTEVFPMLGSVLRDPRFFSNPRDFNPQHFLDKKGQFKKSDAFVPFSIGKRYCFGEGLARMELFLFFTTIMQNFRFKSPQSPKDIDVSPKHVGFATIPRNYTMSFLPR
# [20] = human, recombinant CYP2C19 BACULOSOMES, pH 8, probe Vivid blue substrate (10 μM), O-dealkylation, read-out: 2C19/2A6 selectivity ratio (IC50 CYPX/IC50 CYP2A6)
# [21] = human, read-out: 2D6/2A6 selectivity ratio (IC50 CYPX/IC50 CYP2A6)
# [22] = insect cell microsomes expressing CYP2C19, 0.2M potassium phosphate buffer, mean of at least 3 determinations ± SD, read-out: IC50 ± SD 2C19
# [23] = recombinant CYP2E1 BACULOSOMES, pH 8, probe Vivid blue substrate (10 μM), O-dealkylation, human CYP2E1 versus human CYP2A6, read-out: Selectivity ratio (IC50 CYPX/IC50 CYP2A6) 2E1/2A6
# [24] = insect cell microsomes expressing CYP2E1, 0.2M potassium phosphate buffer, mean of at least 3 determinations ± SD, read-out: IC50 ± SD 2E1
# [25] = human, pH 8, 2C9/2A6 selectivity ratio (IC50 CYPX/IC50 CYP2A6)
# [26] = human, recombinant CYP2B6 BACULOSOMES, pH 8, probe Vivid blue substrate (5 μM), O-dealkylation, read-out: 2B6/2A6 selectivity ratio (IC50 CYPX/IC50 CYP2A6)
# [27] = insect cell microsomes expressing CYP2B6, 0.2M potassium phosphate buffer, mean of at least 3 determinations ± SD, read-out: IC50 ± SD 2B6
# [28] = coumarin 7-hydroxylation, apparent Ki from IC50 by Cheng-Prusoff
# [29] = read-out: IC50 ± SD 2A6, insect cell microsomes expressing CYP2A6, 0.1M Tris buffer, mean of at least 3 determinations ± SD
# [30] = insect cell microsomes expressing CYP2D6, 0.2M potassium phosphate buffer, mean of at least 3 determinations ± SD, read-out: IC50 ± SD 2D6
# [31] = insect cell microsomes expressing CYP2C9, 0.2M potassium phosphate buffer, mean of at least 3 determinations ± SD, read-out: IC50 ± SD 2C9
# [32] = recombinant CYP2C19 BACULOSOMES, pH 8, probe Vivid blue substrate (10 μM), O-dealkylation, human CYP2C19 versus human CYP2A6, read-out: Selectivity ratio (IC50 CYPX/IC50 CYP2A6) 2C19/2A6
# [33] = recombinant CYP2C9 BACULOSOMES, pH 8, probe Vivid blue substrate (10 μM), O-dealkylation, human CYP2C9 versus human CYP2A6, read-out: Selectivity ratio (IC50 CYPX/IC50 CYP2A6) 2C9/2A6
# [34] = recombinant CYP2B6 BACULOSOMES, pH 8, probe Vivid blue substrate (5 μM), O-dealkylation, human CYP2B6 versus human CYP2A6, read-out: Selectivity ratio (IC50 CYPX/IC50 CYP2A6) 2B6/2A6
# [35] = human CYP2D6 versus human CYP2A6, read-out: Selectivity ratio (IC50 CYPX/IC50 CYP2A6) 2D6/2A6
# Sequence of CYP2C19 (P33261 whole entry): as the sequence (P33261 whole entry) above
# Sequence of CYP2E1 (P05181 whole entry): as the sequence (P05181 whole entry) above
smiles,measurement,setting,value
NCc1ccc(-c2cccnc2)o1 [Compound 2a],IC50,"[1]; Table 4, unit inferred, read-out: 2C19 IC50 ± SD",22 ± 1.6 µM
same,2E1/2A6 selectivity ratio (IC50 CYPX/IC50 CYP2A6),[2],637
same,IC50,"[2]; Table 4, unit inferred, read-out: 2E1 IC50 ± SD",172 ± 52 µM
same,binding type,[3],Type II
same,λmax,[3],428 nm
same,λmin,[3],409 nm
same,half-life at 40 μM,[4],37 min
same,half-life at 40 μM,[5],37 min
same,IC50,"[6]; Table 4, unit inferred, read-out: 2C9 IC50 ± SD",11.7 ± 2.2 µM
same,IC50,[7],47.1 ± 18.1 µM
same,IC50,[8],0.27 ± 0.02 µM
same,2B6/2A6 selectivity ratio (IC50 CYPX/IC50 CYP2A6),[9],707
same,IC50,"[9]; Table 4, unit inferred, read-out: 2B6 IC50 ± SD",191 ± 24 µM
same,2D6/2A6 selectivity ratio (IC50 CYPX/IC50 CYP2A6),[10],42
same,IC50,"[10]; Table 4, unit inferred, read-out: 2D6 IC50 ± SD",11.3 ± 2.6 µM
Cc1ccsc1-c1cccnc1 [Compound 4],half-life at 40 μM,[4],41 min
same,half-life at 40 μM,[5],32 min
Cn1cnc(-c2cccnc2)c1 [Compound 5],selectivity ratio at 40 min,[11]; [20],163
same,selectivity ratio at 40 min,"[12]; human, pH 8",5
same,binding type,[3],Type II
same,λmax,[3],429 nm
same,λmin,[3],409 nm
same,half-life at 40 μM,[4],481 min
same,selectivity ratio at 40 min,"[13]; human, recombinant CYP2C9 BACULOSOMES, pH 8, probe Vivid blue substrate (10 μM), O-dealkylation, read-out: 2C9/2A6 selectivity ratio (IC50 CYPX/IC50 CYP2A6)",106
same,IC50,[7],262 ± 63 µM
same,selectivity ratio at 30 min,[14],349
same,IC50,[8],0.75 ± 0.1 µM
same,IC50,"[8]; human, pH 7.5",0.748 ± 0.1 µM
same,selectivity ratio at 40 min,"[15]; human, pH 8",195
same,selectivity ratio at 40 min,[16]; [21],272
"c1cncc(-c2ccc(CNCc3ccc(-c4cccnc4)s3)s2)c1 [Compound 38b, bis((5-(pyridin-3-yl)thiophen-2-yl)methyl)amine]",IC50,[1]; [22],0.21 ± 0.03 µM
same,selectivity ratio at 40 min,[11]; [20],0.03
same,selectivity ratio at 40 min,[12]; [23],0.12
same,IC50,[2]; [24],0.86 ± 0.24 µM
same,selectivity ratio,[13]; [25],0.1
same,selectivity ratio,"[13]; human, pH 8, Selectivity ratio (IC50 CYPX/IC50 CYP2A6) 2C9/2A6",0.1
same,IC50,"[6]; human, pH 8",0.71 ± 0.75 µM
same,selectivity ratio at 30 min,[14],> 54
same,selectivity ratio at 40 min,[15]; [26],1.2
same,IC50,[9]; [27],9 ± 0.8 µM
same,Ki,[17]; [28],1.2 ± 0.2 µM
same,IC50,[17]; [29],7.4 ± 1.3 µM
same,fold decrease of CYP2A6 inhibitor potency,[17]; relative to compound 38a,60 fold
same,IC50,[10]; [30],12.9 ± 1.9 µM
same,selectivity ratio at 40 min,[16]; [21],1.7
"NCc1ccc(-c2cccnc2)o1 [Compound 39a, (5-(Pyridin-3-yl)furan-2-yl)methanamine]",IC50,[1]; [22],22 ± 1.6 µM
same,selectivity ratio at 40 min,"[11]; human, pH 8, 2C19/2A6 selectivity ratio (IC50 CYPX/IC50 CYP2A6)",82
same,selectivity ratio at 40 min,"[11]; human, pH 8, human CYP2C19 versus human CYP2A6, read-out: Selectivity ratio (IC50 CYPX/IC50 CYP2A6) 2C19/2A6",82
same,selectivity ratio at 40 min,"[12]; human, recombinant CYP2E1 BACULOSOMES, pH 8, probe Vivid blue substrate (10 μM), O-dealkylation, read-out: 2E1/2A6 selectivity ratio (IC50 CYPX/IC50 CYP2A6)",637
same,IC50,[2]; [24],172 ± 52 µM
same,binding type,[3],type 2
same,selectivity ratio at 40 min,[13]; [25],41
same,selectivity ratio at 40 min,"[13]; human, pH 8, human CYP2C9 versus human CYP2A6, read-out: Selectivity ratio (IC50 CYPX/IC50 CYP2A6) 2C9/2A6",41
same,IC50,[6]; [31],11.7 ± 2.2 µM
same,selectivity ratio at 30 min,[14],174
same,IC50,"[8]; human, pH 7.5",0.27 ± 0.02 µM
same,Ki,"[8]; human, pH 7.5",0.04 ± 0.004 µM
same,selectivity ratio at 40 min,[15]; [26],707
same,IC50,[9]; [27],191 ± 24 µM
same,IC50,[10]; [30],11.3 ± 2.6 µM
same,selectivity ratio at 40 min,"[16]; human, human CYP2D6 versus human CYP2A6, read-out: Selectivity ratio (IC50 CYPX/IC50 CYP2A6) 2D6/2A6",41
same,selectivity ratio at 40 min,[16]; [21],41
"Nc1ccc(-c2cccnc2)s1 [Compound 57, 5-(Pyridin-3-yl)thiophen-2-amine]",IC50,[1]; [22],3.2 ± 0.2 µM
same,selectivity ratio at 40 min,[11]; [32],0.9
same,selectivity ratio at 40 min,[12]; [23],8.9
same,IC50,[2]; [24],31.1 ± 5.7 µM
same,selectivity ratio at 40 min,[13]; [33],0.6
same,IC50,[6]; [31],2.1 ± 0.2 µM
same,IC50,"[7]; read-out: IC50 ± SD 3A4, human liver microsomes, 0.05M potassium phosphate buffer, pH 7.5, mean of at least 3 determinations ± SD",6.3 ± 1.4 µM
same,selectivity ratio,"[14]; pH 7.5, 3A4/2A6 selectivity ratio (IC50 CYPX/IC50 CYP2A6)",2
same,selectivity ratio,"[14]; pH 7.5, Selectivity ratio (IC50 CYPX/IC50 CYP2A6) 3A4/2A6",2
same,selectivity ratio at 40 min,[15]; [34],1.9
same,IC50,[9]; [27],6.8 ± 0.8 µM
same,Ki,[17]; [28],0.59 ± 0.05 µM
same,Ki,"[17]; coumarin 7-hydroxylation, unit inferred",0.59 ± 0.05 µM
same,IC50,[17]; [29],3.5 ± 0.3 µM
same,IC50,[10]; [30],14.4 ± 0.9 µM
same,selectivity ratio at 40 min,[16]; [35],4.1
"c1ccc(Cn2cnc(-c3cccnc3)c2)cc1 [Compound 60, 3-(1-benzyl-1H-imidazol-4-yl)pyridine]",IC50,[1]; [22],12.1 ± 0.6 µM
same,selectivity ratio at 40 min,[11]; [32],9
same,selectivity ratio at 40 min,"[12]; human, pH 8",0.4
same,IC50,[2]; [24],0.58 ± 0.1 µM
same,selectivity ratio at 40 min,[13]; [33],19
same,IC50,[6]; [31],26.9 ± 2.9 µM
same,IC50,"[7]; microsomes, pH 7.5",75.1 ± 13.9 µM
same,selectivity ratio at 30 min,[14],> 54
same,selectivity ratio at 40 min,[15]; [34],4
same,IC50,[9]; [27],5.3 ± 0.9 µM
same,Ki,[17]; [28],0.23 ± 0.03 µM
same,IC50,[17]; [29],1.4 ± 0.2 µM
same,IC50,[10]; [30],36.3 ± 4.4 µM
same,selectivity ratio at 40 min,[16]; [35],26
Cc1cscc1-c1cccnc1 [TD-I-103],IC50,[18],0.75 µM
same,IC50,"[8]; human, pH 7.5",1.85 ± 0.5 µM
Cc1ccsc1-c1cccnc1 [TD-II-025],IC50,[18],0.3 µM
same,IC50,[19],~1 µM
same,inhibition at 1 µM,[19],51%
NCc1ccc(-c2cccnc2)s1 [TD-II-039],IC50,[18],0.5 µM
CNCc1ccc(-c2cccnc2)s1 [TD-IV-073 30],IC50,[18],0.9 µM
same,IC50,"[17]; read-out: CYP2A6 IC50, coumarin 7-hydroxylation",1.1 ± 0.13 µM
same,inhibition at 1 µM,[19],17%
